The test system of experiment [1] is COLO 357 cells (K-ras mutated pancreatic cancer). The experiment in a line: MTT cell growth inhibition assay, COLO357. Format: cell-based. The settings on record: COLO357, 72 h; read-out: MTT Assay EC50 after 72 h. The method, then:
(§1) COLO 357 cells (K-ras mutated pancreatic cancer) were seeded at a density of 3×10^3 cells per well in 96-well microtiter culture plates. After overnight incubation, medium was removed and replaced with fresh medium containing different concentrations of compounds (0-100 μmol/L) diluted from a 10 mmol/L stock. On completion of 72 hours of incubation, 20 μL of 3-(4,5-dimethylthiazol-2-yl)-2,5-diphenyltetrazolium bromide (MTT) solution (5 mg/mL in PBS) were added to each well and incubated further for 2 hours. Upon termination, the supernatant was aspirated and the MTT formazan formed by metabolically viable cells was dissolved in 100 μL of isopropanol. The plates were mixed for 30 minutes on a gyratory shaker, and absorbance was measured at 595 nm using a plate reader (TECAN, Durham, N.C.). A similar protocol was used for BxPC3 (wild type K-Ras pancreatic cancer), PC3 (prostate cancer) and HCT (colon cancer) cell lines.
(§2) Cells were plated as described above and allowed to attach overnight. The cells were replaced with fresh medium containing 25 μmol/L of Compound 1 and Compound 2 for 72 hours. The effect of Compound 1 and Compound 2 pretreatment on cell viability was examined by the MTT assay method as described above.

The test system of experiment [2] is PC3. Kind of experiment: Quantification of apoptosis by ELISA, PC3. Format: cell-based. The settings on record: PC3, 72 hours; control 0.50. As for the experimental part:
(§3) The Cell Apoptosis ELISA Detection Kit (Roche, Palo Alto, Calif.) was used to detect apoptosis in COLO357 cells, with different treatments according to the manufacturer's protocol. Briefly, COLO357 cells were treated with […] of Compound 1 and Compound 2 for 72 hours. After treatment, the cytoplasmic histone DNA fragments from COLO 357 cells with different treatments were extracted and bound to immobilized anti-histone antibody.
(§4) Subsequently, the peroxidase-conjugated anti-DNA antibody was used for the detection of immobilized histone DNA fragments. After addition of substrate for peroxidase, the spectrophotometric absorbance of the samples was determined using ULTRA Multifunctional Microplate Reader (TECAN) at 405 nm. A similar protocol was used for BxPC3, PC3 and HCT116 cell lines.
(ELISA stands for enzyme-linked immunosorbent assay.)

Experiment [3] has as its system BxPC3. Kind of experiment: Quantification of apoptosis by ELISA, BxPC3. Format: cell-based. The settings on record: BxPC3, 25 mmol/L, 72 hours; control 0.50. The method, then: as §3, §4
Experiment [4] relates to Akt. Kind of experiment: Akt assay (ELISA based activity kit). Format: biochemical. As for the experimental part: Akt activity kit is an ELISA based activity kit that utilizes biotinylated peptide substrate (GRPRTSSFAEG) that is phosphorylated on second serine by Akt1, Akt2, Akt3, SGK and MSK1. Biotinylated Akt substrate and sample containing Akt are incubated in presence of ATP in the wells of a streptavidin coated 96-well plate, which allows for phosphorylation and substrate capture in a single step. The phosphorylated substrate is detected using phosphoserine detection antibody followed by HRP-antibody conjugate and color development with TMB substrate. Sensitivity is increased by addition of ELISA stop solution and relative activity is determined by reading dual absorbance at 450/540 nm or 450/595 nm. Inhibition profiles can be generated based on Akt activity in the presence and absence of test inhibitor(s).

Experiment [5] relates to PC3 (prostate cancer). The experiment in a line: MTT cell growth inhibition assay, PC3. The settings on record: PC3, 72 h; read-out: MTT Assay EC50 after 72 h. Format: cell-based. As for the experimental part:
as §1, §2

Experiment [6] deals with HCT116. Kind of experiment: Quantification of apoptosis by ELISA, HCT116. Format: cell-based. The settings on record: HCT116, 72 hours; control 0.35. As for the experimental part: as §3, §4
The test system of experiment [7] is BxPC3 (wild type K-Ras pancreatic cancer). The experiment in a line: MTT cell growth inhibition assay, BxPC3. Format: cell-based. The settings on record: BxPC3, 72 h; read-out: MTT Assay EC50 after 72 h. The method, then:
as §1, §2

Experiment [8] relates to COLO357 cells. Kind of experiment: Quantification of apoptosis by ELISA, COLO357. Format: cell-based. The settings on record: COLO357, 72 hours; control 0.75. As for the experimental part:
as §3, §4

Experiment [9] relates to HCT116 (colon cancer). The experiment in a line: MTT cell growth inhibition assay, HCT116. Format: cell-based. The settings on record: HCT116, 72 h; read-out: MTT Assay EC50 after 72 h. The method, then:
as §1, §2

The EC50 is the concentration needed to bring the measured effect to its halfway point.

As for “Cu(II) complex of 2-amino-3-[(Z)—N′-(1H-indol-3-ylmethylidene)hydrazinecarbonyl]-propanoic acid [Compound 1]”, the EC50 in [1] was determined as 14.6 µM; in [5] it was 28.8 µM; in [7] it was 28.9 µM; in experiment [9], 11.7 µM. Besides, the “O.D. Of Histone/DNA at 405 nm” value in experiment [2] came to 0.60; in [3], 2.20; in experiment [6], 1.60; in experiment [8] it was 1.90. Besides, the Akt inhibitory activity result in experiment [4] is “micromolar range”.

On to “Cu(II) complex of (2Z)-2-(N-hydroxyimino)-N′-[(1Z)-1H-indol-3-ylmethylidene]-1,3-dioxobutanehydrazide [Compound 2]”, for which the EC50 in experiment [1] was determined as 14.3 µM; in [5] it was 16.6 µM; in experiment [7], 18.9 µM; in [9], 14.1 µM. Besides, the “O.D. Of Histone/DNA at 405 nm” value worked out at 1.90 in [2], 1.80 in [3], 1.75 in experiment [6] and 2.00 in experiment [8]. In addition, the Akt inhibitory activity result in experiment [4] is listed as “micromolar range”.

The values above are taken from patent US7781480B2, “Indole derivatives and their metal conjugates and uses thereof” (VLife Sciences Technologies Pvt. Ltd., priority 2007, dated 2010).
